Experimental data published in patent US20020002171A1, “Materials and methods for killing nematodes and nematode eggs” (priority 2000, published 2002).

Tested on: Caenorhabditis elegans
Test: C. elegans L1 nematicidal dose response in 96-well plates, 5 day visual score (Example 2; same procedure for Example 7, Table 3)
Assay type: in vivo
Design: key to 5 Day Visual Score V1 / 5 Day Visual Score V2 / 5 Day Visual Score V3 / 5 Day Visual Score V4 / 5 Day Visual Score V6 / 5 Day Visual Score V5 / Initial HTS Run Visual Score / Follow-up HTS Run Visual Score: Dead: only stiff L1s (no movement); Dead (L4): worms are dead, but at a later larval stage; majority of worms are L1 (based on size) worms move when plate is tapped; majority of worms are L2 (based on size); majority of worms are L3 (based on size); majority of worms are L4 (based on size); AD: majority of worms are adult; #AD: 5 adult worms or less; B!: sterile (0-25 progeny); B: low broodsize (25-100 progeny); ˜B: moderate broodsize (100-250 progeny); <: reduced broodsize (250-500 progeny); OK: no effect (˜1000+ progeny)
Settings: for 5 Day Visual Score V1 / 5 Day Visual Score V3 / 5 Day Visual Score V4 / 5 Day Visual Score V5 / 5 Day Visual Score V6 / 5 Day Visual Score V2: dose response; for 5 Day Visual Score V1: dilution V1, day 5; for 5 Day Visual Score V3: dilution V3, day 5; for 5 Day Visual Score V4: dilution V4, day 5; for 5 Day Visual Score V5: dilution V5, day 5; for 5 Day Visual Score V6: dilution V6, day 5; for 5 Day Visual Score V2: dilution V2, day 5
In short: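 Scoring was by eye at 100× on day 5, after incubation at 20° C, of 20 C. elegans L1s per well fed 1% E. coli HB101 in NGM. Compound columns V1–V6 spanned 70 μM to 0.3 μM in 3-fold steps, with 1.4% DMSO in the top well and as control.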

| SMILES | Follow-up HTS Run % Run [%] | Follow-up HTS Run Visual Score | Follow-up HTS Run mOD [mOD] | Initial HTS Run % Run [%] | Initial HTS Run Visual Score | Initial HTS Run mOD [mOD] | 5 Day Visual Score V1 | 5 Day Visual Score V3 | 5 Day Visual Score V4 | 5 Day Visual Score V5 | 5 Day Visual Score V6 | 5 Day Visual Score V2 |
| --- | --- | --- | --- | --- | --- | --- | --- | --- | --- | --- | --- | --- |
| CC1CC(C)CN(c2nc(NCc3ccccc3)ns2)C1 (stereo not shown) [compound 264] | 110 | L4/AD/B | 177 | 104 | L4/AD/B | 114 | L2 | < (reduced broodsize (250-500 progeny)) | OK (no effect (˜1000+ progeny)) | OK (no effect (˜1000+ progeny)) | OK (no effect (˜1000+ progeny)) |  |
| CCN(CC)C(=O)C1CCCN(c2nc(NCc3ccccc3)ns2)C1 (stereo not shown) [compound 265] | 111 |  | 178 | 108 |  | 119 |  | OK (no effect (˜1000+ progeny)) | OK (no effect (˜1000+ progeny)) | OK (no effect (˜1000+ progeny)) | OK (no effect (˜1000+ progeny)) | OK (no effect (˜1000+ progeny)) |
| FC(F)(F)c1cccc(N2CCN(c3nc(NCc4ccccc4)ns3)CC2)c1 [compound 266] | 124 |  | 200 | 110 |  | 121 | Dead |  | OK (no effect (˜1000+ progeny)) | OK (no effect (˜1000+ progeny)) | OK (no effect (˜1000+ progeny)) |  |
| CCOc1cc(CCNc2nsc(N3CCN(c4ccc(F)cc4)CC3)n2)ccc1OC [compound 267] | 99 | Dead | 160 | 94 | Dead | 103 | Dead | < (reduced broodsize (250-500 progeny)) | OK (no effect (˜1000+ progeny)) | OK (no effect (˜1000+ progeny)) | OK (no effect (˜1000+ progeny)) | L1 |
| Fc1ccc(N2CCN(c3nc(NCCc4ccc(Oc5ccccc5)cc4)ns3)CC2)cc1 [compound 268] | 96 | Dead | 154 | 128 | Dead | 141 | Dead |  | L4#AD/B | OK (no effect (˜1000+ progeny)) | B (low broodsize (25-100 progeny)) | Dead |
| Cc1cccc(C)c1N1CCN(c2nc(NCCc3ccc(Oc4ccccc4)cc3)ns2)CC1 [compound 269] | 132 | L4/AD/B | 212 | 166 | L4/1AD/B | 183 | Dead | OK (no effect (˜1000+ progeny)) | OK (no effect (˜1000+ progeny)) | OK (no effect (˜1000+ progeny)) | OK (no effect (˜1000+ progeny)) |  |
| CCCCCCCCCCCCCCCCCCN(C)c1nc(NCCc2ccc(Oc3ccccc3)cc2)ns1 [compound 270] | 113 |  | 182 | 149 |  | 164 | Dead |  | OK (no effect (˜1000+ progeny)) | OK (no effect (˜1000+ progeny)) | OK (no effect (˜1000+ progeny)) |  |
| COc1ccc(CNc2nsc(N3CCN(c4ccc(F)cc4)CC3)n2)cc1 [compound 271] | 109 |  | 175 | 101 | L4/AD/B | 111 | Dead |  | < (reduced broodsize (250-500 progeny)) | OK (no effect (˜1000+ progeny)) | < (reduced broodsize (250-500 progeny)) |  |
| C=CCN(CC=C)c1nc(NCC(c2ccccc2)c2ccccc2)ns1 [compound 272] | 110 |  | 177 | 108 | L3 | 119 | Dead | OK (no effect (˜1000+ progeny)) | OK (no effect (˜1000+ progeny)) | OK (no effect (˜1000+ progeny)) | OK (no effect (˜1000+ progeny)) | B (low broodsize (25-100 progeny)) |
| CCCCCCCCCCNc1nsc(N2CCN(c3ccc(F)cc3)CC2)n1 [compound 273] | 94 | Dead | 151 | 101 |  | 111 | Dead | B (low broodsize (25-100 progeny)) | ˜B (moderate broodsize (100-250 progeny)) | OK (no effect (˜1000+ progeny)) | OK (no effect (˜1000+ progeny)) | Dead |
| CCCCCCCCCCNc1nsc(N2CCN(c3ncccn3)CC2)n1 [compound 274] | 116 | Dead | 187 | 111 | Dead | 122 | Dead |  | B (low broodsize (25-100 progeny)) | OK (no effect (˜1000+ progeny)) | OK (no effect (˜1000+ progeny)) | Dead |
| CCCCCCCCCCNc1nsc(N2CCN(c3c(C)cccc3C)CC2)n1 [compound 275] | 105 | Dead | 169 | 95 | Dead | 105 | Dead | OK (no effect (˜1000+ progeny)) | OK (no effect (˜1000+ progeny)) | OK (no effect (˜1000+ progeny)) | OK (no effect (˜1000+ progeny)) | Dead |
| CCCCCCCCCCNc1nsc(N(CC)C2CCCCC2)n1 [compound 276] | 116 | Dead | 187 | 116 | Dead | 128 | Dead |  | OK (no effect (˜1000+ progeny)) | OK (no effect (˜1000+ progeny)) | OK (no effect (˜1000+ progeny)) | Dead |
| CCCCCCCCCCNc1nsc(N(CC(CC)CCCC)CC(CC)CCCC)n1 (stereo not shown) [compound 278] | 109 | Dead | 175 | 112 | Dead | 123 | Dead | ˜B (moderate broodsize (100-250 progeny)) | OK (no effect (˜1000+ progeny)) | OK (no effect (˜1000+ progeny)) | OK (no effect (˜1000+ progeny)) | Dead |
| CCCCCCCCCCNc1nsc(N(CCCC)Cc2ccccc2)n1 [compound 279] | 131 | Dead | 211 | 144 | Dead | 158 | Dead |  | OK (no effect (˜1000+ progeny)) | OK (no effect (˜1000+ progeny)) | OK (no effect (˜1000+ progeny)) | Dead |
| CCCCCCCCCCNc1nsc(N(CC)Cc2ccccc2)n1 [compound 280] | 122 | Dead | 196 | 144 | Dead | 158 | Dead | ˜B (moderate broodsize (100-250 progeny)) | OK (no effect (˜1000+ progeny)) | OK (no effect (˜1000+ progeny)) | OK (no effect (˜1000+ progeny)) | Dead |
| CCCCCCCCCCNc1nsc(N(CC(C)C)CC(C)C)n1 [compound 281] | 128 | Dead | 206 | 141 | Dead | 155 | Dead |  | OK (no effect (˜1000+ progeny)) | OK (no effect (˜1000+ progeny)) | OK (no effect (˜1000+ progeny)) | Dead |
